Measured values from ChEMBL document CHEMBL5653631, “A Potent and Selective ULK1 Inhibitor Suppresses Autophagy and Sensitizes Cancer Cells to Nutrient Stress” (iScience, 2018).

Tests used:
[1] = biological target: T1, Tyrosine-protein kinase receptor TYRO3 (Homo sapiens) (UniProt Q06418); test: Inhibition of human recombinant TYRO3 at 40 nM related to control ULK1
T1 sequence (whole entry): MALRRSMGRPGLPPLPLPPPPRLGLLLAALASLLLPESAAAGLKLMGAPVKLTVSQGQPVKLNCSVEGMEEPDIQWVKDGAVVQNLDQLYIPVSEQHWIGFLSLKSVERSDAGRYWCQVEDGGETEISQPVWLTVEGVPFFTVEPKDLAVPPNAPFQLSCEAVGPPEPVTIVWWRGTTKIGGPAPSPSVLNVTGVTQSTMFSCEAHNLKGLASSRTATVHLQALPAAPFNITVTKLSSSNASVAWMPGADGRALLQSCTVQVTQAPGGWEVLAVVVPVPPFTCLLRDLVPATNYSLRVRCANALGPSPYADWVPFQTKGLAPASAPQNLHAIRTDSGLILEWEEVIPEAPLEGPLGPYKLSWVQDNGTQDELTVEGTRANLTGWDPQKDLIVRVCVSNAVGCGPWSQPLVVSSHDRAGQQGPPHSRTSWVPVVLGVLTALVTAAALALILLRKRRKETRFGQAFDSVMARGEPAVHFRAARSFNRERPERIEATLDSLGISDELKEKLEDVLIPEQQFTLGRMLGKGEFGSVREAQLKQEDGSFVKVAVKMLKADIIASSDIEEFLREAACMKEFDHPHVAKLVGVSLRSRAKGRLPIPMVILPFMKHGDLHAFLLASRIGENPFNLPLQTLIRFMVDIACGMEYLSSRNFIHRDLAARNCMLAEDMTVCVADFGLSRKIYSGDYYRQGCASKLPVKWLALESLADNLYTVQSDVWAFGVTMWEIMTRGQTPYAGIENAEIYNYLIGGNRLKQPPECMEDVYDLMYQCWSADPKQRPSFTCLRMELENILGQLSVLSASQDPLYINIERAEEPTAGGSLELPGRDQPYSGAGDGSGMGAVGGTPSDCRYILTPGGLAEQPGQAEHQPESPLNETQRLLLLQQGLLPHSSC

[2] = biological target: Proto-oncogene tyrosine-protein kinase receptor Ret (Homo sapiens) (UniProt P07949); test: Inhibition of human recombinant RET at 40 nM related to control ULK1
Chain of Proto-oncogene tyrosine-protein kinase receptor Ret (Homo sapiens) (P07949 whole entry): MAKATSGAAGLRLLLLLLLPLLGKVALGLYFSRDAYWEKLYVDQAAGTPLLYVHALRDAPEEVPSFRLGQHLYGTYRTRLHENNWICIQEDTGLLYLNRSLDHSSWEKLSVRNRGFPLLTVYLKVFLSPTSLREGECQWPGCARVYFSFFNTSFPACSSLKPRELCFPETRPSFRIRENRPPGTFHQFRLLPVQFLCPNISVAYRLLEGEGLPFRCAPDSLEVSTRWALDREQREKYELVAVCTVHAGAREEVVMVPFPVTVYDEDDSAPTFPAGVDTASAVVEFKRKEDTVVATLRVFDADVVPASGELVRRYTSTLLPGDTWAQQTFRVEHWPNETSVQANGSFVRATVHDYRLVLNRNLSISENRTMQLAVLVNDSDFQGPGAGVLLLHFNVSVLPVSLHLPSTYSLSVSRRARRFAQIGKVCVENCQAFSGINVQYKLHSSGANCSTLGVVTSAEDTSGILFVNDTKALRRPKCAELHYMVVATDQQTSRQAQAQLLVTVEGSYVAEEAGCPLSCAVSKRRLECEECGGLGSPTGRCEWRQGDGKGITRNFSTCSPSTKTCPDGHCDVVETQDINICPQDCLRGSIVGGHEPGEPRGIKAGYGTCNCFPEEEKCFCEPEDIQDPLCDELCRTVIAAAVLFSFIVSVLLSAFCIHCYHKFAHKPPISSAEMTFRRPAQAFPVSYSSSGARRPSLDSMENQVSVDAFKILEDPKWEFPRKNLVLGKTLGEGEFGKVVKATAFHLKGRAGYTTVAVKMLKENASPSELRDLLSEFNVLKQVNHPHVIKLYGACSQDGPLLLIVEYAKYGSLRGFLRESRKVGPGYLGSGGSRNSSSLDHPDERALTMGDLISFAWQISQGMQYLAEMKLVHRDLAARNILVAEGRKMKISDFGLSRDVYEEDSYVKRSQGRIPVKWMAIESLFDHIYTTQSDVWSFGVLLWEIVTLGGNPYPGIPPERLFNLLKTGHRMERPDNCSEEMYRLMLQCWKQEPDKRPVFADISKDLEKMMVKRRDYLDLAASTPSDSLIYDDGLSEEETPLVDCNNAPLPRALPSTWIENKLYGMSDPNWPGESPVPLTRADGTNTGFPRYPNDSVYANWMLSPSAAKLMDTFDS

[3] = biological target: T2, Serine/threonine-protein kinase TAO3 (Homo sapiens) (UniProt Q9H2K8); test: Inhibition of human recombinant TAO3 at 500 nM related to control ULK1
T2 sequence (whole entry): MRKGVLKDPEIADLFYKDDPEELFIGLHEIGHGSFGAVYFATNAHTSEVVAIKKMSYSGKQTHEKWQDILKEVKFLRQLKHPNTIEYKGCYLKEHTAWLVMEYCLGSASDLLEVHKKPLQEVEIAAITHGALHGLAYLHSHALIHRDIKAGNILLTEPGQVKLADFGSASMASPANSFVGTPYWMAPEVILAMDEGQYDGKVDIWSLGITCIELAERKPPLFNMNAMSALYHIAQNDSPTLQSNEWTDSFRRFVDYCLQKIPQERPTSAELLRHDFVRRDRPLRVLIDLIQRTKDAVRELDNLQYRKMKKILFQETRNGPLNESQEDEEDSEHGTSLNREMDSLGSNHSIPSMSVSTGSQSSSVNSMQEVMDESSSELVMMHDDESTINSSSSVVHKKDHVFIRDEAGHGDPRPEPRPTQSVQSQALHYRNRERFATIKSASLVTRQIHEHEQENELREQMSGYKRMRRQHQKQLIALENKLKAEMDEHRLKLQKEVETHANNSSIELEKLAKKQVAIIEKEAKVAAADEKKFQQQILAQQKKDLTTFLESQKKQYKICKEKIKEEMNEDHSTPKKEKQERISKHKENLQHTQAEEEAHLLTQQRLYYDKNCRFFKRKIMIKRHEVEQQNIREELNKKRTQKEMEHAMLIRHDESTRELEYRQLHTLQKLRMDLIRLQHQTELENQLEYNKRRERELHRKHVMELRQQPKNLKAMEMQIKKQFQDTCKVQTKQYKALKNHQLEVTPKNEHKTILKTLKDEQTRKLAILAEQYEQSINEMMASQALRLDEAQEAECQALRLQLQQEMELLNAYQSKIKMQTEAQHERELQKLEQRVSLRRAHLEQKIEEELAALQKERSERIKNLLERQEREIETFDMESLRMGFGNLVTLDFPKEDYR

[4] = biological target: T3, Serine/threonine-protein kinase haspin (Homo sapiens) (UniProt Q8TF76); test: Inhibition of human recombinant Haspin at 500 nM in presence of ATP by radiometric assay relative to control
T3 sequence (whole entry): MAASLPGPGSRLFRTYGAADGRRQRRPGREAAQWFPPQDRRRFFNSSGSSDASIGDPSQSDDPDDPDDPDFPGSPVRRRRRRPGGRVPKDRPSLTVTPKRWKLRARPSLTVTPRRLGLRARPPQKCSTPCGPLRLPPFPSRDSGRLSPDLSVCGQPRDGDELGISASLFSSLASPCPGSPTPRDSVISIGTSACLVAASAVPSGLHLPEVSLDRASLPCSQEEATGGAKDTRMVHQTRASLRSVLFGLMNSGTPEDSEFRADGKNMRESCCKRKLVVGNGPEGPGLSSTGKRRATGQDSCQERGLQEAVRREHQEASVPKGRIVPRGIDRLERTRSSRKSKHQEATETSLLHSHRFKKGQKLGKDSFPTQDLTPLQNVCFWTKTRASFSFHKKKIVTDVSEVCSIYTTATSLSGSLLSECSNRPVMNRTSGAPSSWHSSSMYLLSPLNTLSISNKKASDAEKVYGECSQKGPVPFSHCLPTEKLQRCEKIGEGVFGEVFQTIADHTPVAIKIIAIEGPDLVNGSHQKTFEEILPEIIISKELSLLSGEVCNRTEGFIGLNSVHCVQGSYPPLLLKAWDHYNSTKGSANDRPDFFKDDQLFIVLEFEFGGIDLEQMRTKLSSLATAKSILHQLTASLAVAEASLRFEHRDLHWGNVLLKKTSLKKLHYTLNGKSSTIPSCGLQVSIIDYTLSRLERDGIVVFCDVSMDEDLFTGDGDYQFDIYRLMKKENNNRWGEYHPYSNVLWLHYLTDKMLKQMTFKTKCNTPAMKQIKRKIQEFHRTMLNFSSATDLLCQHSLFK

[5] = biological target: Proto-oncogene tyrosine-protein kinase ROS (Homo sapiens) (UniProt P08922); test: Inhibition of human recombinant ROS at 15 nM in presence of ATP by radiometric assay relative to control
Chain of Proto-oncogene tyrosine-protein kinase ROS (Homo sapiens) (P08922 whole entry): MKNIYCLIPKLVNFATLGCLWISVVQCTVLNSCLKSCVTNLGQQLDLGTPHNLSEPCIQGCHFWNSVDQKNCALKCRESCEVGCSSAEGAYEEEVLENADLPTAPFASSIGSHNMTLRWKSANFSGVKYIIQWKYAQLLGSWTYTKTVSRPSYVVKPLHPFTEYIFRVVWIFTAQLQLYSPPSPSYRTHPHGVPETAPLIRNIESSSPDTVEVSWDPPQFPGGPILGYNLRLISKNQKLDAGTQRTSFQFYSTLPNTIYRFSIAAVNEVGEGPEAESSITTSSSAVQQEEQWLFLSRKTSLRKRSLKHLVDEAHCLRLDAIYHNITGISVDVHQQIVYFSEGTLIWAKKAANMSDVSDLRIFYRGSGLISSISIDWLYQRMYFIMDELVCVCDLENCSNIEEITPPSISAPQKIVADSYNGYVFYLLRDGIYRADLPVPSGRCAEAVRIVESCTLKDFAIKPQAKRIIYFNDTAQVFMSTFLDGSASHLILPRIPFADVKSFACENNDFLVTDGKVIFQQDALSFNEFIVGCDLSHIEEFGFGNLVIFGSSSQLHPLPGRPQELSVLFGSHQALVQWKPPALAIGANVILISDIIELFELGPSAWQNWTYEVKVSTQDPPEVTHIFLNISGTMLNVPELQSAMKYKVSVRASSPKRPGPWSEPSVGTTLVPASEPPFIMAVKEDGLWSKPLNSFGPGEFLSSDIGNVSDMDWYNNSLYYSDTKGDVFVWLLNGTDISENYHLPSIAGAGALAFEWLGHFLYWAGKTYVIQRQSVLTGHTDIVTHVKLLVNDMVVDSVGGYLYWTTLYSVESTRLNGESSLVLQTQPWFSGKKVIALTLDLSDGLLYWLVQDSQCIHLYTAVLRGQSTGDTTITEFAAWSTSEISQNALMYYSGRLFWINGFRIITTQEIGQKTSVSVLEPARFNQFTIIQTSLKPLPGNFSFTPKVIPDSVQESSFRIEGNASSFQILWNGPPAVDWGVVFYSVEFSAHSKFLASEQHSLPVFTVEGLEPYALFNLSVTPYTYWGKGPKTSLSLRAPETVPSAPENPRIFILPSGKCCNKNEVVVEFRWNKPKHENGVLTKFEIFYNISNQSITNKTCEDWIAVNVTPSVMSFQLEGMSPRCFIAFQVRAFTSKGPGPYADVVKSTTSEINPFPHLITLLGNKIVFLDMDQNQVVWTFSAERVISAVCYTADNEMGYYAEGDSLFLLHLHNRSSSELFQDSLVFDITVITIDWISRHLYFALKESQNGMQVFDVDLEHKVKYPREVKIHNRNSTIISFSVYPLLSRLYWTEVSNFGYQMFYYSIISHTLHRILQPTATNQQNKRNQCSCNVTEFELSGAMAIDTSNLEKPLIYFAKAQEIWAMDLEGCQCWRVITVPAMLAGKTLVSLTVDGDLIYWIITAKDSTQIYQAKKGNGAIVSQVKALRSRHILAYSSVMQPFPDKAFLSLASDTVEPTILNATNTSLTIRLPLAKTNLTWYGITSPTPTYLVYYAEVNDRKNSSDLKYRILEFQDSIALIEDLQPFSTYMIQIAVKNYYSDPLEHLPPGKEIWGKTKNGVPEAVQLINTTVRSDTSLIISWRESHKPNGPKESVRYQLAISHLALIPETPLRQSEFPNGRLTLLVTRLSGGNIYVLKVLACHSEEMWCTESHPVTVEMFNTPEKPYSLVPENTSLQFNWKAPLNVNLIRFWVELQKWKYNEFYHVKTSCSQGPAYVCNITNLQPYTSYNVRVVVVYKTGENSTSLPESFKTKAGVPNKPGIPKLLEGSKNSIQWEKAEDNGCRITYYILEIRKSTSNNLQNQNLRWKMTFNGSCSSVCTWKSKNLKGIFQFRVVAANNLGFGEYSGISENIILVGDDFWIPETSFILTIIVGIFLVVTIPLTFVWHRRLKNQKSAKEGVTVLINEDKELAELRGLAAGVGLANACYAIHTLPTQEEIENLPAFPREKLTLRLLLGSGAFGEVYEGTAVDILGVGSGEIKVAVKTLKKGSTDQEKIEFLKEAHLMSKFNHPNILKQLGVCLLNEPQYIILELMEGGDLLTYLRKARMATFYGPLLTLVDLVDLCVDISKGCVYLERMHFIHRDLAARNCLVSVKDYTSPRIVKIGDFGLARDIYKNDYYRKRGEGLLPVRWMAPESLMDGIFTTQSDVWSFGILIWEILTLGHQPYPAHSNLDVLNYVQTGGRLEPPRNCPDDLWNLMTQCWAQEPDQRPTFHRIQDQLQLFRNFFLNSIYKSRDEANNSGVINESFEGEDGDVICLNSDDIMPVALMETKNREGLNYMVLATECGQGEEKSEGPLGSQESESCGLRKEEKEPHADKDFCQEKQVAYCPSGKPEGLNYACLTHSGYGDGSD

Q: For `O=C(N[C@@H](C1CC1)C(F)(F)F)c1cc(-c2cnn3cc(-c4ccc(F)cc4)cnc23)cs1`, which fold change (FC) [1] is on record?
A: Its fold change (FC) is 0.

Q: And the fold change (FC) [2]?
A: The fold change (FC) was 0.

Q: Which results are given for `CNC(=O)c1ccccc1Oc1nc(Nc2cc(OC)c(OC)c(OC)c2)ncc1Br`?
A: fold change (FC) [3]: 0; inhibition [4]: 0%

Q: `CC(C)[C@H](NC(=O)c1cc(-c2cnn3cc(-c4ccc(OCCN5CCCCC5)cc4)cnc23)cs1)C(F)(F)F` was tested. Which inhibition [5] did it give?
A: Its inhibition is 0%.
